Target: T1, Angiotensin II-Rezeptor (Rattus norvegicus, UniProt P25095)
T1 construct: Das Gewebe (Rattenlunge) wird in Tris-Puffer; from tissue; host or cells: rat lung homogenate (membrane pellet, 20,000 x g)
T1 sequence (P25095 1-359): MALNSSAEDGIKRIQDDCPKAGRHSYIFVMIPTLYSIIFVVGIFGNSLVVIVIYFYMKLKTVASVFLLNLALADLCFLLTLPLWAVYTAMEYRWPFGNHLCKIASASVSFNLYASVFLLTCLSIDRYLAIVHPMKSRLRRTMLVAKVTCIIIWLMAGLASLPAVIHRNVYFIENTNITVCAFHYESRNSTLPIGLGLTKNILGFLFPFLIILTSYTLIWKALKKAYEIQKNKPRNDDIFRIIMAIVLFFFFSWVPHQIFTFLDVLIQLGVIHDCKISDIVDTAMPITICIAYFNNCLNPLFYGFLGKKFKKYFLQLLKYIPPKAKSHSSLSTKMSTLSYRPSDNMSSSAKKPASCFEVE
Experiment: Angiotensin II receptor binding: displacement of [125I]-angiotensin II in rat lung homogenate
Parameters: species or system Ratte
Conditions: rat lung (Rattenlunge) homogenate, 50 pM [125I]-Angiotensin II, 60 min at 37°C, IC50 from dose-response curve; read-out: IC₅₀
Procedure: Methodenbeschreibung Angiotensin II-Rezeptorbindung
Das Gewebe (Rattenlunge) wird in Tris-Puffer (50 mMol Tris, 150 mMol NaCl, 5 mMol EDTA, pH 7.40) homogenisiert und zweimal je 20 Min. bei 20.000 x g zentrifugiert. Das endgültige Pellet wird in Inkubations-Puffer (50 mMol Tris, 5 mMol MgCl₂, 0,2 % BSA, pH 7,40) 1:75, bezogen auf das Feuchtgewicht des Gewebes, resuspendiert. Je 0,1 ml Homogenat wird für 60 Min. bei 37°C mit 50 pM [125^I]-Angiotensin II (NEN, Dreieich, FRG) und steigenden Konzentrationen der Testsubstanz in einem Gesamtvolumen von 0,25 ml inkubiert. Die Inkubation wird durch rasche Filtration durch Glasfiber-Filtermatten beendet. Die Filter werden je 4 ml eiskaltem Puffer (25 mMol Tris, 2.5 mMol MgCl₂, 0,1 % BSA, pH 7,40) gewaschen. Die gebundene Radioaktivität wird in einem Gamma-Counter ermittelt. Aus der Dosis-Wirkungskurve wird der entsprechende IC₅₀-Wert ermittelt.

SMILES | IC50
CCc1nc2c(C)cc(-c3nc4cc(F)ccc4n3C)cc2n1Cc1ccc(-c2ccccc2C(=O)O)cc1 [Substanz A, 4'-[(2-Ethyl-4-methyl-6-(1-methyl-5-fluor-benzimidazol-2-yl)-benzimidazol-1-yl)-methyl]-biphenyl-2-carbonsäure] | 7.4 nM
CCCc1nc2c(C)cc(N3CCCCS3(=O)=O)cc2n1Cc1ccc(-c2ccccc2C(=O)O)cc1 [Substanz B, 4'-[(2-n-Propyl-4-methyl-6-(butansultam-1-yl)-benzimidazol-1-yl)-methyl]-biphenyl-2-carbonsäure] | 0.9 nM
Cc1cc(-c2cn3ccccc3n2)cc2c1nc(C1CC1)n2Cc1ccc(-c2ccccc2C(=O)O)cc1 [Substanz C, 4'-[(2-Cyclopropyl-4-methyl-6-(imidazo[1,2-a]pyridin-2-yl)-benzimidazol-1-yl)-methyl]-biphenyl-2-carbonsäure] | 1.7 nM
Cc1cc(-c2cn3c(n2)CCCC3)cc2c1nc(C1CC1)n2Cc1ccc(-c2ccccc2C(=O)O)cc1 [Substanz D, 4'-[(2-Cyclopropyl-4-methyl-6-(5,6,7,8-tetrahydro-imidazo[1,2-a]pyridin-2-yl)-benzimidazol-1-yl)-methyl]-biphenyl-2-carbonsäure] | 1.3 nM
CCOc1nc2c(C)cc(-c3nc4ccccc4n3C)cc2n1Cc1ccc(-c2ccccc2-c2nnn[nH]2)cc1 [Substanz E, 4'-[(2-Ethoxy-4-methyl-6-(1-methyl-benzimidazol-2-yl)-benzimidazol-1-yl)-methyl]-2-(1H-tetrazol-5-yl)-biphenyl] | 3.3 nM

From EP0581166A1, “Benzimidazoles, process for their preparation and their use as angiotensin-II antagonists” (Dr. Karl Thomae GmbH, priority 1992, dated 1994)
